Results: patent US8129383B2, “Aminopterin dosage forms and methods for inflammatory disorders” (Aminopterin LLC, priority 2005, dated 2012)
Where two headings read alike, the source gives them in different places.

Assays:
[1] = target: T1, dihydrofolate reductase (DHFR) in the liver (Mus musculus, UniProt P00375); assay: free DHFR in liver by 3H-MTX binding after weekly dosing; assay type: in vivo, mice
T1 construct: from tissue; host or cells: liver (homogenate supernatant) of dosed mice
T1 sequence (P00375 1-187): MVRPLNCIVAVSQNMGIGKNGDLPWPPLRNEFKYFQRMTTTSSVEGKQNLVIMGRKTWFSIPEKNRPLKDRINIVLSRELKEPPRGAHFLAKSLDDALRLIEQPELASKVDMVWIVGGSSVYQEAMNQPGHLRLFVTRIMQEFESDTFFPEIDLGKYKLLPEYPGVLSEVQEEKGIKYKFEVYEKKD
Description: The animals that were treated in Example 1 were further analyzed with respect to the free dihydrofolate reductase (DHFR) available in their livers (i.e., amount of DHFR unbound, or not inhibited by either AMT or MTX) (FIG. 6). The following procedure was used. Portions of frozen liver were weighed and homogenized in three volumes of assay buffer (10 mM KPO4, 150 mM KCl, 1 mg/ml charcoal-treated BSA, 0.1 mg/ml NADPH, pH 7.5) on ice. After centrifugation for 30 min at 16000×G at 4° C., tissue extract was assayed for free DHFR by binding of 3H-MTX. Three serial 1:2 dilutions were made in assay buffer (total 100 μl/tube), starting with 10 μl extract for control samples (+190 μl buffer) or 100 μl for antifolate-treated samples. Approximately 2 pmoles of 3H-MTX (˜100,000 dpms) in 100 μl buffer was added to each tube and mixed by addition of another 100 μl buffer and agitation. After 30 mins on ice, unbound 3H-MTX was removed by addition of 200 μl dextran-coated activated charcoal (2.5% activated charcoal and 0.5% dextran MW 10,000) and centrifugation. Radioactivity in the supernatant (=bound 3H-MTX) was counted after careful removal from the charcoal pellet and addition of Ultima Gold scintillation fluid. A charcoal “blank” consisting of buffer, 3H-MTX and charcoal was subtracted from each value. Results were calculated by averaging the dpms bound/100 μl of the three dilutions, converting to picomoles MTX (specific activity 49,000 dpms/picomole, determined by competitive radioligand assay), and multiplying by 30 to give picomoles/gm tissue.

[2] = system: carrageenan-induced inflammation in air pouches; assay: duration of efficacy in the murine air-pouch model after cessation of 4 weeks of dosing; assay type: in vivo, mice; settings: aminopterin 0.05 mg/kg, methotrexate 1.0 mg/kg
Description: We therefore examined the rate at which anti-inflammatory activity was lost in the air-pouch model after the cessation of 4 weeks of dosing at the maximally efficacious dose (FIG. 2).
On day 25 the air pouches were re-inflated with 1.5 ml of air. Pouches were re-inflated as needed to maintain them.

[3] = storage of aqueous compositions; assay type: physicochemical; settings: six months of storage; water converts aminopterin to folic acid
Description: Because of their ease of administration, tablets and capsules represent the most advantageous oral dosage form in adults, in which case solid pharmaceutical carriers are employed. If desired, tablets may be coated by standard aqueous or nonaqueous techniques. The parenteral dosage form can consist of a sterile solution of the active ingredient, either in its free or salt form, in physiological buffer or sterile water. In addition, parenteral solutions can contain preservatives such as benzalkonium chloride, methyl- or propyl-paraben and chlorobutanol. Suitable pharmaceutical carriers are described in Remington's Pharmaceutical Sciences, a standard reference text in this field. […] Accordingly, such aqueous compositions are best stored desiccated and hydrated within several hours to several days prior to patient administration.

psoriasis [4] = settings: 329 patients, schedules of the 1955 study; cited from earlier work
formaldehyde arthritis = settings: cumulative weekly doses of 0.3 mg/kg; cited from earlier work
psoriasis [5] = settings: cited from earlier work

Nc1nc(N)c2nc(CNc3ccc(C(=O)N[C@@H](CCC(=O)O)C(=O)O)cc3)cnc2n1 [aminopterin, 4-amino-pteroyl-L-glutamic acid]
available DHFR in the liver bound (inhibited) ([1]; 1 day after the last of 4 sequential weekly doses): about 95%
available DHFR in the liver bound (inhibited) ([1]; 8 d after the last of 4 weekly doses): about 83%
available DHFR in the liver bound (inhibited) ([1]; 22 d after the last of 4 weekly doses): about 70%
difference between aminopterin and methotrexate in rate of recovery of inflammation ([2]; 8, 12 or 22 days after last of 4 weekly ip doses): no statistically significant difference
duration of action ([2]; after last of 4 weekly ip doses): quite long
stability of parenteral, oral liquid or other aqueous compositions [3]: accumulate folic acid to undesirable levels
overall incidence of toxicity (psoriasis [4]): 21%
efficacy (formaldehyde arthritis): demonstrated the efficacy
frequency of toxic reactions (psoriasis [5]; schedule (i): 1 tablet (0.5 mg) daily for six days): 0%
frequency of toxic reactions (psoriasis [5]; schedule (ii): 1 tablet daily six days, one week rest, 1 tablet daily six days): 2.5%
frequency of toxic reactions (psoriasis [5]; schedule (iii): 1 tablet daily for 12 days): 13%
frequency of toxic reactions (psoriasis [5]; schedule (iv): 2 tablets daily for six days): 30%
